Results on nine molecules are retold here after paper PMC6100075, “Correlation between the Potency of Flavonoids on Mushroom Tyrosinase Inhibitory Activity and Melanin Synthesis in Melanocytes” (Molecules : A Journal of Synthetic Chemistry and Natural …, 2018).

Molecules are shown by their SMILES.

One data set deals with mushroom tyrosinase (Agaricus bisporus, UniProt C7FF04). The experiment in a line: Mushroom tyrosinase inhibitory assay (o-diphenolase activity, L-DOPA as substrate).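 Note: enzyme and test sample preincubated 10 min at 25 °C in pH 6.8 phosphate buffer, 50% DMSO vehicle as control, enzyme-free mixture as blank.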 The data set is classed as biochemical. The following applies: 500 μM; L-DOPA substrate.
Sequence of mushroom tyrosinase (G1K3P4 entry or part of it): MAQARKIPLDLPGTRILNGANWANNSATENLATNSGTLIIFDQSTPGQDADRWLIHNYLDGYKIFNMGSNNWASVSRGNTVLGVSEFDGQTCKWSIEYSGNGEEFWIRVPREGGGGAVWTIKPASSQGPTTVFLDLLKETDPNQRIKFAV
Sequence of mushroom tyrosinase (C7FF04 2-392): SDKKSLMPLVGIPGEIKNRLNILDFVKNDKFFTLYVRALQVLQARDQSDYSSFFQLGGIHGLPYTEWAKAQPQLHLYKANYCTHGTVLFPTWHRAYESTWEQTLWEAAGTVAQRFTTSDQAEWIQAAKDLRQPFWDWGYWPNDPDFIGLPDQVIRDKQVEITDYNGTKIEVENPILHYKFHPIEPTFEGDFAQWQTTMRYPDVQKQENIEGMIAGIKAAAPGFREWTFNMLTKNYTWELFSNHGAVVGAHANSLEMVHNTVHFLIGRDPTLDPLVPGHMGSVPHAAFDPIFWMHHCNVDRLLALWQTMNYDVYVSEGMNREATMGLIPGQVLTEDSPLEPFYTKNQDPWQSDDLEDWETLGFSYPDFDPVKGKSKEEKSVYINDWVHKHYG
On to `COc1ccc(C2COc3c(ccc(O)c3OC)C2)c(OC)c1O` (stereo not shown) [Compound 22, Duartin], for which the inhibition (as a rule, how much of the control response was suppressed) at 500 µM came out at 0%.

Molecule `COc1ccc(C2COc3cc(O)cc(O)c3C2=O)cc1O` [Compound 16, (3R,S)-Kenusanone G] had an inhibition at 500 µM of 0%.

The same data set, now with this note: pre-incubation with enzyme in absence of L-DOPA; coloured product at 475 nm.
Take `COc1ccc([C@H]2COc3c(ccc(O)c3O)C2)c(OC)c1O` [Compound 23, (3S)-8-Demethylduartin]: the “behaviour as substrate of mushroom tyrosinase (in words)” value is listed as “chromogenic substrate analog”.

For `COc1c(O)cc2occ(-c3ccc(O)cc3)c(=O)c2c1O` [Compound 8, Tectorigenin], the “behaviour as substrate of mushroom tyrosinase (in words)” value is listed as “chromogenic substrate analogs”.

The data set is the same for the next values; noted with them: read-out: Mushroom Tyrosinase Inhibition % Inhibition (at 200 μM).
As to `Oc1cc(O)cc(/C=C/c2ccc(O)cc2O)c1` [Oxyresveratrol, reference compound], the inhibition at 200 µM came to 98.4 ± 1.1%.

Regarding `COc1ccc([C@@H]2COc3cc(O)ccc3C2=O)cc1O` [Compound 10, (3R)-7,3′-Dihydroxy-4′-methoxy-isoflavanone], the inhibition at 200 µM worked out at 52.1 ± 0.4%.

As for `COc1cc(O)c2c(=O)c(-c3ccc(O)cc3O)coc2c1` [Compound 9, Cajanin], the inhibition at 200 µM was determined as 65 ± 1.6%.

As to `O=C1C[C@@H](c2ccc(O)cc2)Oc2cc(O)ccc21` [Compound 24, (2S)-Liquiritigenin], the inhibition at 200 µM came to 52.1 ± 1.4%.

Tested on in the next data set: not listed separately
The experiment in a line: Cell viability assay (PrestoBlue resazurin).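 Note: mouse B16-F10 melanoma cells exposed to test samples for 72 h, with viability read as fluorescence of resorufin formed when living cells reduce PrestoBlue resazurin.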 The data set is classed as cell-based, Mus musculus (mouse). The note with it: mouse, % Cell Viability. In general terms: Resazurin is reduced to fluorescent resorufin, in cell work by metabolically active cells.
`Oc1cc(O)cc(/C=C/c2ccc(O)cc2O)c1` [Oxyresveratrol, reference compound]: the viability (commonly a read-out of living cells in per cent, often relative to untreated cells) at 72 h, 15 µM was found to be 117 ± 2.2% and the viability at 72 h, 30 µM was determined as 118 ± 5.1%.

Still in this data set, the particulars now being: mouse, B16-F10 melanoma cells, 15 μM; 72 h; relative to control; read-out: % Cell Viability.
For the molecule `COc1ccc([C@H]2COc3c(ccc(O)c3O)C2)c(OC)c1O` [Compound 23, (3S)-8-Demethylduartin], the viability at 72 h, 15 µM stood at 93.5 ± 3%.

Turning to `COc1c(O)cc2occ(-c3ccc(O)cc3)c(=O)c2c1O` [Compound 8, Tectorigenin], the viability at 72 h, 15 µM came to 130 ± 3.4%.

Consider `COc1ccc(C2COc3c(ccc(O)c3OC)C2)c(OC)c1O` (stereo not shown) [Compound 22, Duartin], for which the viability at 72 h, 15 µM came to 140 ± 7.5%.

On to `COc1ccc([C@@H]2COc3cc(O)ccc3C2=O)cc1O` [Compound 10, (3R)-7,3′-Dihydroxy-4′-methoxy-isoflavanone], for which the viability at 72 h, 15 µM turned out to be 94.9 ± 3.9%.

In the case of `COc1ccc(C2COc3cc(O)cc(O)c3C2=O)cc1O` [Compound 16, (3R,S)-Kenusanone G], the viability at 72 h, 15 µM was 124 ± 1.7%.

As to `O=C1C[C@@H](c2ccc(O)cc2)Oc2cc(O)ccc21` [Compound 24, (2S)-Liquiritigenin], the viability at 72 h, 15 µM was 98.9 ± 10.7%.

For the molecule `O=c1cc(CO)occ1O` [Kojic acid, reference compound], the viability at 72 h, 15 µM was found to be 98.9 ± 4.7%.

The same data set, now with this note: mouse, B16-F10 melanoma cells, 30 μM; 72 h; relative to control; read-out: % Cell Viability.
As for `COc1ccc([C@H]2COc3c(ccc(O)c3O)C2)c(OC)c1O` [Compound 23, (3S)-8-Demethylduartin], the viability at 72 h, 30 µM came out at 98.3 ± 5.4%.

Turning to `COc1c(O)cc2occ(-c3ccc(O)cc3)c(=O)c2c1O` [Compound 8, Tectorigenin], the viability at 72 h, 30 µM came to 119 ± 1.3%.

As to `COc1ccc(C2COc3c(ccc(O)c3OC)C2)c(OC)c1O` (stereo not shown) [Compound 22, Duartin], the viability at 72 h, 30 µM is 94.4 ± 2.8%.

`COc1ccc([C@@H]2COc3cc(O)ccc3C2=O)cc1O` [Compound 10, (3R)-7,3′-Dihydroxy-4′-methoxy-isoflavanone]: the viability at 72 h, 30 µM stood at 96.5 ± 3.9%.

As for `COc1ccc(C2COc3cc(O)cc(O)c3C2=O)cc1O` [Compound 16, (3R,S)-Kenusanone G], the viability at 72 h, 30 µM was 102 ± 2.8%.

On to `O=C1C[C@@H](c2ccc(O)cc2)Oc2cc(O)ccc21` [Compound 24, (2S)-Liquiritigenin], for which the viability at 72 h, 30 µM is 100 ± 3.5%.

On to `O=c1cc(CO)occ1O` [Kojic acid, reference compound], for which the viability at 72 h, 30 µM worked out at 99.6 ± 2.3%.

The same data set, now with this note: mouse; 15 μM; 72 h; relative to control; read-out: % Cell Viability.
Consider `COc1cc(O)c2c(=O)c(-c3ccc(O)cc3O)coc2c1` [Compound 9, Cajanin], for which the viability at 72 h, 15 µM is 102 ± 6.6%.

Still in this data set, the particulars now being: mouse; 30 μM; 72 h; relative to control; read-out: % Cell Viability.
As to `COc1cc(O)c2c(=O)c(-c3ccc(O)cc3O)coc2c1` [Compound 9, Cajanin], the viability at 72 h, 30 µM was determined as 107 ± 3.3%.

A further data set concerns B16-F10 melanoma cells. The experiment in a line: Total melanin content assay. The data set is classed as cell-based, Mus musculus (mouse).
Conditions: not given
The protocol:
Mus musculus (mouse) melanoma cell line, B16-F10 (ATCC® Number: CRL-6475™, Manassas, VA, USA), was cultured in complete Dulbecco′s Modified Eagle′s Medium (DMEM, phenol red-free medium) containing 10% fetal bovine serum, 25 mM glucose, 4 mM L-glutamine, 1 mM sodium pyruvate, 10 μg/mL penicillin, and 10 μg/mL streptomycin, at 37 °C, with 5% carbon dioxide (CO2) in a humidified atmosphere.
The total melanin content, produced both extracellularly and intracellularly, was determined as follows: B16-F10 cells were seeded onto a 24-well plate at a concentration of 50,000 cells/0.5 mL/well and were incubated for 24 h, followed by treatment with either the test compounds or the control (0.5% DMSO), and then incubated for 72 h. For extraction, the total produced melanin and 0.5 mL of 2 N NaOH containing 20% DMSO were added directly to the cell culture medium, mixed by pipetting and then incubated at room temperature for 1 h. The lysed cell extract was centrifuged at 13,000× g for 5 min. Finally, the supernatant was transferred to a 96-well plate and the relative melanin content was detected at 405 nm using a micro plate reader. Kojic acid and oxyresveratrol were used as positive controls.
Regarding `COc1ccc(C2COc3c(ccc(O)c3OC)C2)c(OC)c1O` (stereo not shown) [Compound 22, Duartin], the “increase in melanin content with respect to the control” value is recorded as “three-fold increase”.

The data set is the same for the next values; noted with them: 30 μM.
Consider `COc1ccc(C2COc3c(ccc(O)c3OC)C2)c(OC)c1O` (stereo not shown) [Compound 22, Duartin], for which the “effect on melanin content (in words, Figure 1)” value was “increased the melanin content”.

As for `COc1cc(O)c2c(=O)c(-c3ccc(O)cc3O)coc2c1` [Compound 9, Cajanin], the “effect on melanin content (in words, Figure 1)” value is given as “inhibitory effect of melanogenesis”.

Staying with this data set, now noted: Mus musculus, B16-F10, 72 h, read-out: % Melanin Content.
In the case of `COc1cc(O)c2c(=O)c(-c3ccc(O)cc3O)coc2c1` [Compound 9, Cajanin], the activity at 15 µM worked out at 65.8 ± 7.5% and the activity at 30 µM was found to be 61.6 ± 8.9%.

The same data set, now with this note: Mus musculus, B16-F10, read-out: inhibition of melanogenesis.
Consider `COc1cc(O)c2c(=O)c(-c3ccc(O)cc3O)coc2c1` [Compound 9, Cajanin], for which the inhibition at 15 µM turned out to be 34%.

The data set is the same for the next values; noted with them: Mus musculus, B16-F10; 15 μM; 72 h; relative to control; read-out: % Melanin Content.
In the case of `Oc1cc(O)cc(/C=C/c2ccc(O)cc2O)c1` [Oxyresveratrol, reference compound], the activity at 15 µM came to 24.3 ± 1.1%.

For the molecule `COc1ccc([C@H]2COc3c(ccc(O)c3O)C2)c(OC)c1O` [Compound 23, (3S)-8-Demethylduartin], the activity at 15 µM is 87.8 ± 2%.

Regarding `COc1c(O)cc2occ(-c3ccc(O)cc3)c(=O)c2c1O` [Compound 8, Tectorigenin], the activity at 15 µM is 128 ± 2.8%.

In the case of `COc1ccc(C2COc3c(ccc(O)c3OC)C2)c(OC)c1O` (stereo not shown) [Compound 22, Duartin], the activity at 15 µM worked out at 301.1 ± 2.3%.

Consider `COc1ccc([C@@H]2COc3cc(O)ccc3C2=O)cc1O` [Compound 10, (3R)-7,3′-Dihydroxy-4′-methoxy-isoflavanone], for which the activity at 15 µM turned out to be 95.1 ± 3%.

For `COc1ccc(C2COc3cc(O)cc(O)c3C2=O)cc1O` [Compound 16, (3R,S)-Kenusanone G], the activity at 15 µM is 133 ± 5.1%.

Consider `O=C1C[C@@H](c2ccc(O)cc2)Oc2cc(O)ccc21` [Compound 24, (2S)-Liquiritigenin], for which the activity at 15 µM came out at 103 ± 5.5%.

With `O=c1cc(CO)occ1O` [Kojic acid, reference compound], the activity at 15 µM was 68.9 ± 5.2%.

Staying with this data set, now noted: Mus musculus, B16-F10; 30 μM; 72 h; relative to control; read-out: % Melanin Content.
As to `Oc1cc(O)cc(/C=C/c2ccc(O)cc2O)c1` [Oxyresveratrol, reference compound], the activity at 30 µM came out at 28.4 ± 1.7%.

With `COc1ccc([C@H]2COc3c(ccc(O)c3O)C2)c(OC)c1O` [Compound 23, (3S)-8-Demethylduartin], the activity at 30 µM came out at 72.7 ± 4.3%.

Regarding `COc1c(O)cc2occ(-c3ccc(O)cc3)c(=O)c2c1O` [Compound 8, Tectorigenin], the activity at 30 µM amounted to 152 ± 4.7%.

Take `COc1ccc(C2COc3c(ccc(O)c3OC)C2)c(OC)c1O` (stereo not shown) [Compound 22, Duartin]: the activity at 30 µM was 326.8 ± 2.1%.

Take `COc1ccc([C@@H]2COc3cc(O)ccc3C2=O)cc1O` [Compound 10, (3R)-7,3′-Dihydroxy-4′-methoxy-isoflavanone]: the activity at 30 µM was found to be 95.2 ± 2.7%.

On to `COc1ccc(C2COc3cc(O)cc(O)c3C2=O)cc1O` [Compound 16, (3R,S)-Kenusanone G], for which the activity at 30 µM was 158 ± 13.5%.

Regarding `O=C1C[C@@H](c2ccc(O)cc2)Oc2cc(O)ccc21` [Compound 24, (2S)-Liquiritigenin], the activity at 30 µM was 124 ± 2%.

Consider `O=c1cc(CO)occ1O` [Kojic acid, reference compound], for which the activity at 30 µM was determined as 74.2 ± 5.8%.

In a further data set the target is T1, murine tyrosinase (Mus musculus, UniProt P11344).
T1 construct: The cells were lysed by vortex and incubated at 4 °C for 1 h to solubilize the tyrosinase enzyme; endogenous in cells; host or cells: B16-F10 melanoma cells (Triton X-100 lysate, dialyzed)
T1 sequence (P11344 19-533): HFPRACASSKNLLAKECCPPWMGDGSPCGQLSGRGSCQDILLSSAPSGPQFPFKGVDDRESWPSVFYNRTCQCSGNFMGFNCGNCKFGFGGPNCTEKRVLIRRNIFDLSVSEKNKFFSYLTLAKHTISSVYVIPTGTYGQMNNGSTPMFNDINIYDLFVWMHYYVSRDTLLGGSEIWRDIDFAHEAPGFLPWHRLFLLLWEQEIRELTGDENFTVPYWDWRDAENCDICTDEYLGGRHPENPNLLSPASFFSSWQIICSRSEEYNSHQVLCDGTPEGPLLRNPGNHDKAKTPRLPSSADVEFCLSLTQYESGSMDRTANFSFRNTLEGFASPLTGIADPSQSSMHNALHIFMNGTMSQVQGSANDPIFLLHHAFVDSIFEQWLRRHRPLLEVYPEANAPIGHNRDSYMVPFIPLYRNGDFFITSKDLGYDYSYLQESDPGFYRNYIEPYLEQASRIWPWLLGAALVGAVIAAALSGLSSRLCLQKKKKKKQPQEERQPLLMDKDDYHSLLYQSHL
The experiment in a line: Murine tyrosinase inhibitory assay (o-diphenolase activity, crude enzyme from B16-F10 melanoma cells).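 Note: crude tyrosinase taken from lysed, dialyzed B16-F10 cell extract, with the inhibition reaction incubated for 2 h at 37 °C.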 The data set is classed as biochemical. The following applies: 200 μM; L-DOPA substrate; read-out: Murine Tyrosinase Inhibition, % (at 200 μM).
Turning to `COc1c(O)cc2occ(-c3ccc(O)cc3)c(=O)c2c1O` [Compound 8, Tectorigenin], the inhibition at 200 µM was 10.2 ± 2.9%.

On to `O=C1C[C@@H](c2ccc(O)cc2)Oc2cc(O)ccc21` [Compound 24, (2S)-Liquiritigenin], for which the inhibition at 200 µM is 13.2 ± 2.7%.

The same data set, now with this note: 200 μM; L-DOPA substrate; read-out: Murine Tyrosinase Inhibition, % (at 200 μM), symbol.
Regarding `COc1ccc([C@H]2COc3c(ccc(O)c3O)C2)c(OC)c1O` [Compound 23, (3S)-8-Demethylduartin], the inhibition at 200 µM is below 0%.

Consider `COc1ccc(C2COc3c(ccc(O)c3OC)C2)c(OC)c1O` (stereo not shown) [Compound 22, Duartin], for which the inhibition at 200 µM was below 0%.

For the molecule `COc1ccc([C@@H]2COc3cc(O)ccc3C2=O)cc1O` [Compound 10, (3R)-7,3′-Dihydroxy-4′-methoxy-isoflavanone], the inhibition at 200 µM was below 0%.

Take `COc1ccc(C2COc3cc(O)cc(O)c3C2=O)cc1O` [Compound 16, (3R,S)-Kenusanone G]: the inhibition at 200 µM is below 0%.

The same data set, now with this note: read-out: Murine Tyrosinase Inhibition, % (at 200 μM).
As for `COc1cc(O)c2c(=O)c(-c3ccc(O)cc3O)coc2c1` [Compound 9, Cajanin], the inhibition at 200 µM was found to be 9.2 ± 1.5%.
